Laboratory results from patent publication US9770446B2, “Piperidine urea derivatives” (MERCK PATENT GMBH, priority 2013, dated 2017).

How the values were obtained:
[1] = molecular target: T1, GST-tagged Tankyrase-2 (873-1166 aa) (Homo sapiens, UniProt Q9H2K2); test: Tankyrase 2 autoparsylation HTRF enzyme assay; assay type: biochemical; settings: read-out: IC50 TNKS2 enzyme assay
T1 construct: GST-tagged Tankyrase-2 (873-1166 aa)
Experimental: Biochemical activity testing of Tankyrase 1 and 2: Autoparsylation assay
The autoparsylation assay is run in two steps: the enzymatic reaction in which GST-tagged Tankyrase-1, resp Tankyrase-2 transferred biotinylated ADP-ribose to itself from biotinylated NAD as co-substrate and the detection reaction where a time resolved FRET between cryptate labelled anti-GST bound to the GST tag of the enzyme and Xlent® labelled-streptavidin bound the biotin-parsylation residue is analysed. The autoparsylation activity was detectable directly via the increase in HTRF signal.
The autoparsylation assay is performed as 384-well HTRF® (Cisbio, Codolet, France) assay format in Greiner low volume nb 384-well microtiter plates and is used for high throughput screen. 250 nM GST-tagged Tankyrase-1 (1023-1327 aa), respectively about 250 nM GST-tagged Tankyrase-2 (873-1166 aa) and 5 μM bio-NAD (Biolog, Life science Inst., Bremen, Germany) as co-substrate are incubated in a total volume of 5 μl (50 mM HEPES, 4 mM Mg-chloride, 0.05% Pluronic F-68, 1.4 mM DTT, 0.5% DMSO, pH 7.7) in the absence or presence of the test compound (10 dilution concentrations) for 90 min at 30° C. The reaction is stopped by the addition of 1 μl 50 mM EDTA solution. 2 μl of the detection solution (1.6 μM SA-Xlent® (Cisbio, Codolet, France), 7.4 nM Anti-GST-K® (Eu-labelled anti-GST, Cisbio, Codolet, France) in 50 mM HEPES, 800 mM KF, 0.1% BSA, 20 mM EDTA, 0.1% CHAPS, pH 7.0) are added. After 1 h incubation at room temperature the HTRF is measured with an Envision multimode reader (Perkin Elmer LAS Germany GmbH) at excitation wavelength 340 nm (laser mode) and emission wavelengths 615 nm and 665 nm. The ratio of the emission signals is determined. The full value used is the inhibitor-free reaction. The pharmacological zero value used is XAV-939 (Tocris) in a final concentration of 5 μM. The inhibitory values (IC50) are determined using either the program Symyx Assay Explorer® or Condosseo® from GeneData.

[2] = molecular target: T2, GST-tagged Tnks-1 (1023-1327 aa) (Homo sapiens, UniProt O95271); test: TNKS1 activity ELISA (autoparsylation assay); assay type: biochemical
T2 construct: GST-tagged Tnks-1 (1023-1327 aa, prepared in-house); made in house
How it was run: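 Each GST-tagged enzyme (20 ng/well) was captured overnight at 4 °C on glutathione plates, then auto-ADP-ribosylated with 10 μM biotin-NAD for 1 h at 30 °C, pH 7.7, 0.5% DMSO, compound at 10 concentrations. Streptavidin-HRP chemiluminescence measured the signal. IC50 relative to inhibitor-free reaction, with 5 μM XAV-939 defining zero.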

T2 sequence (O95271 1023-1327): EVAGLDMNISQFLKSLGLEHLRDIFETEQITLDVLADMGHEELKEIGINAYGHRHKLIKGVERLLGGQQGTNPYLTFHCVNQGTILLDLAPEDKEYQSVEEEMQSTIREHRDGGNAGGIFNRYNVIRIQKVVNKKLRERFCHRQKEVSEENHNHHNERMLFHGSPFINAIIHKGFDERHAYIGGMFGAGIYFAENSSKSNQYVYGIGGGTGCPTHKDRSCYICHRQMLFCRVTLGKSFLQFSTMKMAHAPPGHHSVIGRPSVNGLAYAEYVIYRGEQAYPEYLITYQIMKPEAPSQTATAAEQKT
T1 sequence (Q9H2K2 873-1166): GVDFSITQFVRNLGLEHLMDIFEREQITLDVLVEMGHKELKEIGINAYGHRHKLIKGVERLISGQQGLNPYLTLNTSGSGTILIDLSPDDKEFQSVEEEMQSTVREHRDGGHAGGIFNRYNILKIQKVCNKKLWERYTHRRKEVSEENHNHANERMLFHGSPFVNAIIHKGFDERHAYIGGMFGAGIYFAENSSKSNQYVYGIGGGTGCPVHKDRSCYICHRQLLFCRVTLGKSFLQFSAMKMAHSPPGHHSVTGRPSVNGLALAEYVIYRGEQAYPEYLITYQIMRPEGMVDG

Row | Compound | IC50 [1] [nM] | IC50 [2] [nM]
1 | Cc1cccc(N(C)C(=O)N2CCC(C(=O)c3ccccc3)CC2)c1 [Compound A1, 4-benzoyl-piperidine-1-carboxylic acid methyl-m-tolyl-amide] | 300 to 3000 | < 300
2 | Cc1ccc(N(C)C(=O)N2CCC(C(=O)c3ccccc3)CC2)cc1 [Compound A2, 4-benzoyl-piperidine-1-carboxylic acid methyl-p-tolyl-amide] | 300 to 3000 | < 300
3 | COc1ccc(N(C)C(=O)N2CCC(C(=O)c3ccccc3)CC2)cc1 [Compound A4, 4-benzoyl-piperidine-1-carboxylic acid (4-methoxy-phenyl)-methyl-amide] | 300 to 3000 | < 300
4 | COc1ccc(N(C)C(=O)N2CCC(C(=O)c3ccc(C)cc3)CC2)cc1 [Compound A5, 4-(4-methyl-benzoyl)-piperidine-1-carboxylic acid (4-methoxy-phenyl)-methylamide] | 300 to 3000 | < 300
5 | COc1ccc(C(=O)C2CCN(C(=O)N(C)c3ccc(OC)cc3)CC2)cc1 [Compound A6, 4-(4-methoxy-benzoyl)-piperidine-1-carboxylic acid (4-methoxy-phenyl)methyl-amide] | 300 to 3000 | < 300
6 | COc1ccc(N(C)C(=O)N2CCC(C(=O)c3cccc(F)c3)CC2)cc1 [Compound A7, 4-(3-fluoro-benzoyl)-piperidine-1-carboxylic acid (4-methoxy-phenyl)-methylamide] | 300 to 3000 | < 300
7 | COc1ccc(N(C)C(=O)N2CCC(C(=O)c3ccc(F)cc3)CC2)cc1 [Compound A8, 4-(4-fluoro-benzoyl)-piperidine-1-carboxylic acid (4-methoxy-phenyl)-methylamide] | 300 to 3000 | < 300
8 | CN(C(=O)N1CCC(C(=O)c2ccccc2)CC1)c1ccc(F)cc1 [Compound A13, 4-benzoyl-piperidine-1-carboxylic acid (4-fluoro-phenyl)-methyl-amide] | 300 to 3000 | < 300
9 | CCN(C(=O)N1CCC(C(=O)c2ccccc2)CC1)c1ccc(OC)cc1 [Compound A14, 4-benzoyl-piperidine-1-carboxylic acid ethyl-(4-methoxy-phenyl)-amide] | 300 to 3000 | < 300
10 | COc1ccc(N(CCO)C(=O)N2CCC(C(=O)c3ccccc3)CC2)cc1 [Compound A15, 4-benzoyl-piperidine-1-carboxylic acid (2-hydroxy-ethyl)-(4-methoxy-phenyl)amide] | 300 to 3000 | < 300
11 | O=C(c1ccccc1)C1CCN(C(=O)N2CCc3ccccc32)CC1 [Compound A16, (4-benzoyl-piperidin-1-yl)-(2,3-dihydro-indol-1-yl)-methanone] | 300 to 3000 | < 300
12 | Cc1ccc(C(=O)C2CCN(C(=O)N3CCc4ccccc43)CC2)cc1 [Compound A17, (2,3-dihydro-indol-1-yl)-[4-(4-methyl-benzoyl)-piperidin-1-yl]-methanone] | 300 to 3000 | < 300
13 | COc1ccc(C(=O)C2CCN(C(=O)N3CCc4ccccc43)CC2)cc1 [Compound A18, (2,3-dihydro-indol-1-yl)-[4-(4-methoxy-benzoyl)-piperidin-1-yl]-methanone] | 300 to 3000 | < 300
14 | CCN(C(=O)N1CCC(C(=O)c2ccc(OC)c(C)c2)CC1)c1ccc(OC)cc1 [Compound A24, 4-(4-methoxy-3-methyl-benzoyl)-piperidine-1-carboxylic acid ethyl-(4-methoxy-phenyl)-amide] | 300 to 3000 | < 300
15 | COc1ccc(N(C)C(=O)N2CCC(C(=O)c3cccc(C)c3)CC2)cc1 [Compound A25, 4-(3-methyl-benzoyl)-piperidine-1-carboxylic acid (4-methoxy-phenyl)methyl-amide] | 300 to 3000 | < 300
16 | CCN(C(=O)N1CCC(C(=O)c2cccc(C)c2)CC1)c1ccc(OC)cc1 [Compound A26, 4-(3-methyl-benzoyl)-piperidine-1-carboxylic acid ethyl-(4-methoxy-phenyl)amide] | 300 to 3000 | < 300
17 | COc1ccc(N(C)C(=O)N2CCC(C(=O)c3cccc(OC)c3)CC2)cc1 [Compound A27, 4-(3-methoxy-benzoyl)-piperidine-1-carboxylic acid (4-methoxy-phenyl)methyl-amide] | 300 to 3000 | < 300
18 | CCN(C(=O)N1CCC(C(=O)c2cccc(OC)c2)CC1)c1ccc(OC)cc1 [Compound A28, 4-(3-methoxy-benzoyl)-piperidine-1-carboxylic acid ethyl-(4-methoxy-phenyl)amide] | < 300 | < 300
19 | COc1ccc(N(C)C(=O)N2CCC(C(=O)c3ccc(OC)c(F)c3)CC2)cc1 [Compound A29, 4-(3-fluoro-4-methoxy-benzoyl)-piperidine-1-carboxylic acid (4-methoxy-phenyl)-methyl-amide] | 300 to 3000 | < 300
20 | CN(C(=O)N1CCC(C(=O)c2ccc(NS(C)(=O)=O)cc2)CC1)c1ccccc1 [Compound A38, 4-(4-methanesulfonylamino-benzoyl)-piperidine-1-carboxylic acid methyl-phenyl-amide] | 300 to 3000 | < 300
21 | CCOC(=O)CN(C(=O)N1CCC(C(=O)c2ccc(OC)cc2)CC1)c1ccccc1 [Compound A40, {[4-(4-methoxy-benzoyl)-piperidine-1-carbonyl]-phenyl-amino}-acetic acid ethyl ester] | 300 to 3000 | < 300
